The results in this text go back to PubChem BioAssay (NCI).

Among the test systems are A549 NSCLC; BT-549 breast; CAKI-1 renal; CCRF-CEM leukemia; HCT-116 colon; HCT-15 colon; HL-60(TB) leukemia; HOP-62 NSCLC; HOP-92 NSCLC; IGROV1 ovarian; K-562 leukemia; MDA-MB-231 breast; MDA-N; PC-3 prostate; SF-539 CNS; SK-MEL-2 melanoma; SK-MEL-5 melanoma; TK-10 renal; UACC-62 melanoma.
What all share (experiment): NCI tumour cell line growth inhibition, 48 h

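Assay format: 96-well plates, 48-hour exposure. TGI: total growth inhibition.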

On to `NC(=S)Nc1c(S(N)(=O)=O)cc(S(N)(=O)=O)c(Cl)c1Cl`, for which the TGI in the test with A549 NSCLC, with BT-549 breast, in the test on CAKI-1 renal, with CCRF-CEM leukemia, in the test on HCT-116 colon and in the test on HCT-15 colon was above 100 µM in each case. Moreover, the TGI in the test with HL-60(TB) leukemia, in the test on HOP-62 NSCLC, in the test with HOP-92 NSCLC, in the test on IGROV1 ovarian, in the test with K-562 leukemia and in the test on MDA-MB-231 breast was above 100 µM throughout. Further, the TGI in the test with MDA-N, in the test on PC-3 prostate, with SF-539 CNS, in the test with SK-MEL-2 melanoma, with SK-MEL-5 melanoma and with TK-10 renal was above 100 µM throughout. Besides, the TGI in the test with UACC-62 melanoma was above 100 µM.
On to `N#Cc1nc(N)c(C#N)[nH]1`, for which the TGI in the test on A549 NSCLC, in the test on BT-549 breast, in the test with CAKI-1 renal, in the test with CCRF-CEM leukemia, in the test on HCT-116 colon and in the test on HCT-15 colon was above 100 µM each time. Also, the TGI with HL-60(TB) leukemia, in the test with HOP-62 NSCLC, with HOP-92 NSCLC, in the test on IGROV1 ovarian, in the test on K-562 leukemia and with MDA-MB-231 breast was above 100 µM throughout. In addition, the TGI in the test on MDA-N, in the test on PC-3 prostate, in the test with SF-539 CNS, with SK-MEL-2 melanoma, in the test with SK-MEL-5 melanoma and in the test with TK-10 renal was above 100 µM throughout. In the test on UACC-62 melanoma, the TGI is above 100 µM.
With `Cc1ccc(NC(=O)C23CC4CC(CC(C4)C2)C3)c(C(=O)NNC(=O)c2ccc(Cl)cc2)c1`, the TGI is 46 µM in the test on A549 NSCLC; above 100 µM in the test on BT-549 breast; 73.8 µM in the test on CAKI-1 renal; 55.2 µM in the test on CCRF-CEM leukemia; above 100 µM in the test with HCT-116 colon; 35.7 µM in the test with HCT-15 colon. The TGI stood at 55.5 µM in the test on HL-60(TB) leukemia; 49.6 µM with HOP-62 NSCLC; 33.5 µM with HOP-92 NSCLC; 18.2 µM in the test on IGROV1 ovarian; 95 µM in the test with K-562 leukemia; 50.3 µM in the test on MDA-MB-231 breast. Further, the TGI worked out at 52.1 µM in the test with MDA-N; 69.5 µM in the test with PC-3 prostate; 49.5 µM in the test on SF-539 CNS; 42.6 µM with SK-MEL-5 melanoma; 41.5 µM in the test with TK-10 renal; 53.2 µM with UACC-62 melanoma.
Regarding `C/C(CC(O)(C(F)(F)Cl)C(F)(F)Cl)=N\Nc1ccccc1`, the TGI with A549 NSCLC was above 100 µM; in the test on BT-549 breast, above 100 µM; in the test on CAKI-1 renal it was 67.2 µM; with CCRF-CEM leukemia it was above 100 µM; with HCT-116 colon, above 100 µM; with HCT-15 colon it was above 100 µM. The TGI is 62.5 µM in the test with HL-60(TB) leukemia; 69.6 µM in the test on HOP-92 NSCLC; above 100 µM with IGROV1 ovarian; above 100 µM with K-562 leukemia; above 100 µM with MDA-MB-231 breast; above 100 µM in the test on MDA-N. For the same compound, the TGI with PC-3 prostate was 78.9 µM; in the test on SF-539 CNS, above 100 µM; in the test on SK-MEL-2 melanoma it was 79.7 µM; with SK-MEL-5 melanoma, 36.9 µM; in the test with TK-10 renal, 95.3 µM; in the test with UACC-62 melanoma, above 100 µM.
Consider `CCCc1c(O)c2ccccc2[nH]c1=O`, for which the TGI with A549 NSCLC, with BT-549 breast, in the test with CAKI-1 renal, in the test on CCRF-CEM leukemia, with HCT-116 colon and in the test with HCT-15 colon was above 100 µM throughout. Further, the TGI with HL-60(TB) leukemia, in the test with HOP-62 NSCLC, in the test with HOP-92 NSCLC, with IGROV1 ovarian, in the test on K-562 leukemia and in the test with MDA-MB-231 breast was above 100 µM in each case. The TGI in the test with MDA-N, in the test on PC-3 prostate, in the test on SF-539 CNS, in the test with SK-MEL-5 melanoma and in the test with TK-10 renal was above 100 µM each time.
For the compound `C=CC(Br)(CBr)CCC1OC1(C)C` (centres undefined), the TGI in the test with A549 NSCLC is 64.3 µM; in the test on BT-549 breast, 30.2 µM; in the test on CAKI-1 renal, 36.4 µM; with CCRF-CEM leukemia it was above 100 µM; in the test with HCT-116 colon it was 30.7 µM; with HL-60(TB) leukemia, above 100 µM. Besides, the TGI with HOP-62 NSCLC was 33.2 µM; with HOP-92 NSCLC, 28.2 µM; in the test with IGROV1 ovarian it was 26.7 µM; in the test on K-562 leukemia it was above 100 µM; in the test with MDA-MB-231 breast, 24.6 µM; in the test with MDA-N it was 24.5 µM. The TGI in the test on PC-3 prostate came out at 30.9 µM; with SF-539 CNS it was 33.9 µM; in the test on SK-MEL-2 melanoma, 30.6 µM; in the test on SK-MEL-5 melanoma, 27.3 µM; in the test with TK-10 renal, 36.2 µM.
Turning to `Cc1cc(N(C)C)ccc1N=Nc1ccc2ncccc2c1`, the TGI in the test with A549 NSCLC, with BT-549 breast, in the test with CAKI-1 renal, in the test on CCRF-CEM leukemia, with HCT-116 colon and with HCT-15 colon was above 100 µM throughout. Further, the TGI with HL-60(TB) leukemia, in the test with HOP-92 NSCLC, with IGROV1 ovarian, in the test on K-562 leukemia, with MDA-MB-231 breast and with MDA-N was above 100 µM each time. Also, the TGI in the test with PC-3 prostate was above 100 µM; in the test with SF-539 CNS, above 100 µM; with SK-MEL-2 melanoma, above 100 µM; with SK-MEL-5 melanoma, 98.1 µM; in the test on TK-10 renal, 76.2 µM; in the test with UACC-62 melanoma, above 100 µM.
For `CC(C)(Cl)C(Br)CCC(=CCBr)CBr` (mixture of isomers), the TGI in the test with A549 NSCLC came to 29.9 µM; with BT-549 breast it was 7.5 µM; in the test with CCRF-CEM leukemia, 3.49 µM; in the test on HCT-116 colon, 3.66 µM; with HCT-15 colon, 3.75 µM; in the test on HL-60(TB) leukemia, 2.42 µM. For the same compound, the TGI came out at 11.7 µM with HOP-62 NSCLC; 5.1 µM in the test with HOP-92 NSCLC; 5.56 µM with IGROV1 ovarian; 4.18 µM in the test with K-562 leukemia; 3.51 µM in the test on MDA-MB-231 breast; 6.13 µM with MDA-N. Also, the TGI was found to be 18 µM in the test with PC-3 prostate; 4.93 µM with SF-539 CNS; 22.9 µM in the test on SK-MEL-2 melanoma; 7.77 µM in the test on SK-MEL-5 melanoma; 12.5 µM in the test on TK-10 renal; 11.5 µM in the test with UACC-62 melanoma.
